Measurements reported in ChEMBL document CHEMBL1141750, “Phenanthroindolizidine alkaloids from the stems of Ficus septica” (2005).

Tests used:
[1] = Cytotoxicity against human HONE1 at 10 uM after 3 days by MTS reduction assay; format: functional; settings: HONE1, 72 h
NUGC = experiment: Cytotoxicity against human NUGC at 10 uM after 3 days by MTS reduction assay; format: functional; settings: 72 h

| SMILES | inhibition at 10 µM [1] [%] | inhibition at 10 µM (NUGC) [%] |
| --- | --- | --- |
| COc1cc2c3c(c4ccc(OC)c(OC)c4c2cc1OC)C[N@@+]1([O-])CCC[C@@H]1C3 | 92 | 94 |
| COc1cc2c3c(c4ccc(OC)c(OC)c4c2cc1OC)C[C@H]1CCC[N@+]1([O-])C3 | 87 | 93 |
| COc1cc2c3c(c4cc(OC)c(OC)cc4c2cc1OC)CN1CCC[C@@H]1C3 [TYLOPHORINE] | 80 | 85 |
